Data taken from PubChem BioAssay (NCI).
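1) Cells in 96-well plates. 2) Compound, 48 h, 5 concentrations. 3) Linear interpolation between surrounding doses. 4) Unreached endpoint = highest concentration. Abbreviation: GI50, concentration required for 50% inhibition of growth. TGI marks complete inhibition of growth.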

Legend:
Assay in all cases: growth of human tumour cells (NCI), 48 h
UO-31 renal = system: UO-31 renal
HOP-62 NSCLC = system: HOP-62 NSCLC
HT29 colon = system: HT29 colon
CCRF-CEM leukemia = system: CCRF-CEM leukemia
SF-268 CNS = system: SF-268 CNS
IGROV1 ovarian = system: IGROV1 ovarian
SK-OV-3 ovarian = system: SK-OV-3 ovarian
NCI/ADR-RES ovarian = system: NCI/ADR-RES ovarian
NCI-H460 lung = system: NCI-H460 lung
UACC-62 melanoma = system: UACC-62 melanoma
SNB-75 CNS = system: SNB-75 CNS
OVCAR-3 ovarian = system: OVCAR-3 ovarian
NCI-H226 lung = system: NCI-H226 lung
HOP-92 NSCLC = system: HOP-92 NSCLC
U251 CNS = system: U251 CNS
K-562 leukemia = system: K-562 leukemia
OVCAR-4 ovarian = system: OVCAR-4 ovarian
SK-MEL-5 melanoma = system: SK-MEL-5 melanoma
HCC-2998 colon = system: HCC-2998 colon
UACC-257 melanoma = system: UACC-257 melanoma
HCT-15 colon = system: HCT-15 colon
OVCAR-5 ovarian = system: OVCAR-5 ovarian
M14 melanoma = system: M14 melanoma
MCF7 breast = system: MCF7 breast
EKVX NSCLC = system: EKVX NSCLC
MOLT-4 leukemia = system: MOLT-4 leukemia
DU-145 prostate = system: DU-145 prostate
MDA-MB-231 breast = system: MDA-MB-231 breast
KM12 colon = system: KM12 colon
NCI-H522 lung = system: NCI-H522 lung
RPMI-8226 leukemia = system: RPMI-8226 leukemia
SK-MEL-28 melanoma = system: SK-MEL-28 melanoma
SN12C renal = system: SN12C renal
T-47D breast = system: T-47D breast
NCI-H23 lung = system: NCI-H23 lung
SK-MEL-2 melanoma = system: SK-MEL-2 melanoma
TK-10 renal = system: TK-10 renal
LOX IMVI melanoma = system: LOX IMVI melanoma
COLO 205 colon = system: COLO 205 colon
CAKI-1 renal = system: CAKI-1 renal
OVCAR-8 ovarian = system: OVCAR-8 ovarian
HCT-116 colon = system: HCT-116 colon
MDA-MB-435 = system: MDA-MB-435
SW-620 colon = system: SW-620 colon
HS 578T breast = system: HS 578T breast
SF-539 CNS = system: SF-539 CNS
SF-295 CNS = system: SF-295 CNS
ACHN renal = system: ACHN renal
BT-549 breast = system: BT-549 breast
SNB-19 CNS = system: SNB-19 CNS
786-0 renal = system: 786-0 renal
PC-3 prostate = system: PC-3 prostate
A549 NSCLC = system: A549 NSCLC
RXF 393 renal = system: RXF 393 renal

O=C(Nc1ccccc1)NS(=O)(=O)c1ccc(N2N=C3c4ccccc4CC3C2c2ccccn2)cc1 (stereo not drawn)
GI50 (UO-31 renal): 48.8 µM | TGI (UO-31 renal): > 100 µM | GI50 (HOP-62 NSCLC): 20.4 µM | TGI (HOP-62 NSCLC): 45.5 µM | GI50 (HT29 colon): 37.9 µM | TGI (HT29 colon): > 100 µM | GI50 (CCRF-CEM leukemia): 40.9 µM | TGI (CCRF-CEM leukemia): > 100 µM | GI50 (SF-268 CNS): 62.1 µM | TGI (SF-268 CNS): > 100 µM | GI50 (IGROV1 ovarian): 16.2 µM | TGI (IGROV1 ovarian): 80.5 µM | GI50 (SK-OV-3 ovarian): > 100 µM | TGI (SK-OV-3 ovarian): > 100 µM | GI50 (NCI/ADR-RES ovarian): 64.4 µM | TGI (NCI/ADR-RES ovarian): > 100 µM | GI50 (NCI-H460 lung): 38.5 µM | TGI (NCI-H460 lung): > 100 µM | GI50 (UACC-62 melanoma): 17.8 µM | TGI (UACC-62 melanoma): 37.2 µM | GI50 (SNB-75 CNS): > 100 µM | TGI (SNB-75 CNS): > 100 µM | GI50 (OVCAR-3 ovarian): 21.6 µM | TGI (OVCAR-3 ovarian): 74.4 µM | GI50 (NCI-H226 lung): 23.7 µM | TGI (NCI-H226 lung): 75.3 µM | GI50 (HOP-92 NSCLC): 74.9 µM | TGI (HOP-92 NSCLC): > 100 µM | GI50 (U251 CNS): 31.9 µM | TGI (U251 CNS): > 100 µM | GI50 (K-562 leukemia): 26.7 µM | TGI (K-562 leukemia): 65.6 µM | GI50 (OVCAR-4 ovarian): > 100 µM | TGI (OVCAR-4 ovarian): > 100 µM | GI50 (SK-MEL-5 melanoma): 23.6 µM | TGI (SK-MEL-5 melanoma): 47 µM | GI50 (HCC-2998 colon): 17.3 µM | TGI (HCC-2998 colon): 33.3 µM | GI50 (UACC-257 melanoma): 26.6 µM | TGI (UACC-257 melanoma): 76.6 µM | GI50 (HCT-15 colon): 23.1 µM | TGI (HCT-15 colon): > 100 µM | GI50 (OVCAR-5 ovarian): 26.8 µM | TGI (OVCAR-5 ovarian): 97.9 µM | GI50 (M14 melanoma): 24.9 µM | TGI (M14 melanoma): 51.4 µM | GI50 (MCF7 breast): 27 µM | TGI (MCF7 breast): > 100 µM | GI50 (EKVX NSCLC): 27.8 µM | TGI (EKVX NSCLC): > 100 µM | GI50 (MOLT-4 leukemia): 11.6 µM | TGI (MOLT-4 leukemia): > 100 µM | GI50 (DU-145 prostate): 36.2 µM | TGI (DU-145 prostate): > 100 µM | GI50 (MDA-MB-231 breast): 19.8 µM | TGI (MDA-MB-231 breast): 60.8 µM | GI50 (KM12 colon): 24.8 µM | TGI (KM12 colon): 88.7 µM | GI50 (NCI-H522 lung): 17.7 µM | TGI (NCI-H522 lung): 58.3 µM | GI50 (RPMI-8226 leukemia): 27.1 µM | TGI (RPMI-8226 leukemia): > 100 µM | GI50 (SK-MEL-28 melanoma): 71.5 µM | TGI (SK-MEL-28 melanoma): > 100 µM | GI50 (SN12C renal): 30.4 µM | TGI (SN12C renal): > 100 µM | GI50 (T-47D breast): 93 µM | TGI (T-47D breast): > 100 µM | GI50 (NCI-H23 lung): 20.8 µM | TGI (NCI-H23 lung): 52.2 µM | GI50 (SK-MEL-2 melanoma): 35.6 µM | TGI (SK-MEL-2 melanoma): > 100 µM | GI50 (TK-10 renal): 11.7 µM | TGI (TK-10 renal): 45.6 µM | GI50 (LOX IMVI melanoma): 15.4 µM | TGI (LOX IMVI melanoma): 34.2 µM | GI50 (COLO 205 colon): 31.1 µM | TGI (COLO 205 colon): > 100 µM | GI50 (CAKI-1 renal): 26.4 µM | TGI (CAKI-1 renal): 90.2 µM | GI50 (OVCAR-8 ovarian): 27 µM | TGI (OVCAR-8 ovarian): 92.3 µM | GI50 (HCT-116 colon): 15.3 µM | TGI (HCT-116 colon): 29.1 µM | GI50 (MDA-MB-435): 21.4 µM | TGI (MDA-MB-435): 54 µM | GI50 (SW-620 colon): 34 µM | TGI (SW-620 colon): > 100 µM | GI50 (HS 578T breast): 40.7 µM | TGI (HS 578T breast): > 100 µM | GI50 (SF-539 CNS): 30.6 µM | TGI (SF-539 CNS): 75.7 µM | GI50 (SF-295 CNS): 20.6 µM | TGI (SF-295 CNS): 50 µM | GI50 (ACHN renal): 23.6 µM | TGI (ACHN renal): 68.8 µM | GI50 (BT-549 breast): 30.6 µM | TGI (BT-549 breast): > 100 µM | GI50 (SNB-19 CNS): 83.9 µM | TGI (SNB-19 CNS): > 100 µM | GI50 (786-0 renal): 35.5 µM | TGI (786-0 renal): > 100 µM | GI50 (PC-3 prostate): 36.6 µM | TGI (PC-3 prostate): > 100 µM | GI50 (A549 NSCLC): 29.2 µM | TGI (A549 NSCLC): > 100 µM | GI50 (RXF 393 renal): 45.3 µM | TGI (RXF 393 renal): > 100 µM
